We go through 22 molecules from patent publication US8546385B2, “Benzoic pyrrolopyridine derivatives” (Laboratoires FOURNIER SA, priority 2010, dated 2013).

Experiment [1] deals with hNurr1_RXRγFL (NURR-1/RXRγ heterodimer) (Homo sapiens, UniProt P48443). Briefly: Transactivation test (luciferase reporter) in Cos-7 cells co-transfected with NURR-1-Gal4 and RXRγ. It is filed as cell-based. The note with it: percentage efficacy relative to the reference XCT0135908 at 2×10^−5 M (=100%), read-out: hNurr1_RXRγFL Eff (%). On the procedure: The ability of the compounds according to the invention to behave as activators of the heterodimers formed by the NURR-1 nuclear receptor and the RXR nuclear receptors was measured, by means of an in vitro test.
A transactivation test was used as a primary screening test. Cos-7 cells were co-transfected with a plasmid expressing a construct of the NURR-1-Ga14 human receptor, a plasmid expressing the RXR human receptor (RXRα or RXRγ receptor) and a reporter plasmid 5Gal4pGL3-TK-Luc. The transfections were performed using a chemical agent (Jet PEI).
The transfected cells were distributed into 384-well plates and left to stand for 24 hours.
After 24 hours, the culture medium was changed. The test products were added (final concentration of between 10^−4 and 3×10^−10 M) in the culture medium. After incubating overnight, the luciferase expression was measured after addition of “SteadyGlo” according to the manufacturer's instructions (Promega).
4-[[6-Methyl-2-phenyl-5-(2-propenyl)-4-pyrimidinyl]amino]benzoic acid (reference XCT0135908, described by Wallen-Mackenzie et al. 2003, Genes & Development 17: 3036-3047) at 2×10^−5 M (RXR agonist) was used as reference.
The levels of induction were calculated relative to the basal activity of each heterodimer. The results were expressed as a percentage of the level of induction relative to the level of induction obtained with the reference (the level of induction of the reference is arbitrarily equal to 100%).
For orientation: A reporter such as luciferase makes a cellular process visible.

Experiment [2] addresses hNurr1_RXRαFL (NURR-1/RXRα heterodimer) (Homo sapiens, UniProt P19793). Briefly: Transactivation test (luciferase reporter) in Cos-7 cells co-transfected with NURR-1-Gal4 and RXRα. It is filed as cell-based. On the procedure:
The ability of the compounds according to the invention to behave as activators of the heterodimers formed by the NURR-1 nuclear receptor and the RXR nuclear receptors was measured, by means of an in vitro test. A transactivation test was used as a primary screening test. […] The transfections were performed using a chemical agent (Jet PEI). The transfected cells were distributed into 384-well plates and left to stand for 24 hours. After 24 hours, the culture medium was changed. […] After incubating overnight, the luciferase expression was measured after addition of “SteadyGlo” according to the manufacturer's instructions (Promega). […] The levels of induction were calculated relative to the basal activity of each heterodimer. The results were expressed as a percentage of the level of induction relative to the level of induction obtained with the reference (the level of induction of the reference is arbitrarily equal to 100%).

Setting [3] is: percentage efficacy relative to the reference XCT0135908 at 2×10^−5 M (=100%), read-out: hNurr1_RXRαFL Eff (%).

Molecules are shown by their SMILES. Like-named read-outs stand apart in the source and are kept apart here.

Chain of hNurr1_RXRγFL (NURR-1/RXRγ heterodimer) (P48443 whole entry, the tested form may be a part): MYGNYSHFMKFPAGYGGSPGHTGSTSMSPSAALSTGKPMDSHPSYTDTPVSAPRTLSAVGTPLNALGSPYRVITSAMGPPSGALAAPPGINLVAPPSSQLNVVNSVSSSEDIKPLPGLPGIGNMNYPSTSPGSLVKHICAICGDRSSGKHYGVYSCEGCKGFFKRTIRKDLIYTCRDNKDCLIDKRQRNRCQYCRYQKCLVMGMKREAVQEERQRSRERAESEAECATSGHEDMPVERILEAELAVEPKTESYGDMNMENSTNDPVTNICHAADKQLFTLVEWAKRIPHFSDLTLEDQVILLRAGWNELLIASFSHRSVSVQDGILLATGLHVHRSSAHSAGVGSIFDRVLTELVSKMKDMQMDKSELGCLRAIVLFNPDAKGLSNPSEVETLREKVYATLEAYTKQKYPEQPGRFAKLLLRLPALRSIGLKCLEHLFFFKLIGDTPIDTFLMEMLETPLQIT
Chain of hNurr1_RXRγFL (NURR-1/RXRγ heterodimer) (P43354 whole entry partner, the tested form may be a part): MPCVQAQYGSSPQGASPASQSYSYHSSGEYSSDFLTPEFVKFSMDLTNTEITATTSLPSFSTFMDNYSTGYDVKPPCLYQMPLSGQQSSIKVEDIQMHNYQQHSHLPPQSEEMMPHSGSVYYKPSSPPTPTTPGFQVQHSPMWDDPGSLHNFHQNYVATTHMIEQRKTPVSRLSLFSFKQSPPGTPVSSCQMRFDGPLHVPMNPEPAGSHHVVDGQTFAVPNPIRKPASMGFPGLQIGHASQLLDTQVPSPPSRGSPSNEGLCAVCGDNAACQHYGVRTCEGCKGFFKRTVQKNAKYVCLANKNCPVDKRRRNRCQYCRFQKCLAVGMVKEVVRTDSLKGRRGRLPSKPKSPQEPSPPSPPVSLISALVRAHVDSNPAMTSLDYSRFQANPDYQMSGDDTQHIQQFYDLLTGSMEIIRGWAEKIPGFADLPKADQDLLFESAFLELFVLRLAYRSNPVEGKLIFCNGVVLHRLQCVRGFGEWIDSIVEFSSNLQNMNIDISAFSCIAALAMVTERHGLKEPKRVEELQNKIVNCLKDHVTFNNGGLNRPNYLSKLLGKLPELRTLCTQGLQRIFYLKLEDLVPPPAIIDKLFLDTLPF
Chain of hNurr1_RXRαFL (NURR-1/RXRα heterodimer) (P19793 whole entry, the tested form may be a part): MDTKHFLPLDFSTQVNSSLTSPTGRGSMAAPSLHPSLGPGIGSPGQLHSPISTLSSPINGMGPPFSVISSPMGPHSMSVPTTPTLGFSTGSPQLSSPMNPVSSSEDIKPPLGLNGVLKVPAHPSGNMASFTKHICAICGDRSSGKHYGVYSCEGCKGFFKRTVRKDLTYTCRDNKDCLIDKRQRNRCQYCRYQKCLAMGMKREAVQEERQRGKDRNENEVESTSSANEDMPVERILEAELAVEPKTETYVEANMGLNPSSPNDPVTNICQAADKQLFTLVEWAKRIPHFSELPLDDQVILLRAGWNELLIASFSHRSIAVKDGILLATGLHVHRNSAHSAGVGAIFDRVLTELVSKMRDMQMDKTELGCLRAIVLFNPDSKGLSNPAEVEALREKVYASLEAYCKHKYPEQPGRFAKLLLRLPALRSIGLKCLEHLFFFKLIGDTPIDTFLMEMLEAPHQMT
Chain of hNurr1_RXRαFL (NURR-1/RXRα heterodimer) (P43354 whole entry, further chain, the tested form may be a part): as the sequence (P43354 whole entry partner, the tested form may be a part) above

For the molecule `CC(C)(C)c1cccc(S(=O)(=O)n2c(Cc3nc(C(=O)O)cs3)cc3nc(C(F)(F)F)ccc32)c1` [Example 8, 2-[[1-[[3-(1,1-dimethylethyl)phenyl]sulfonyl]-5-(trifluoromethyl)-1H-pyrrolo[3,2-b]pyridin-2-yl]methyl]thiazole-4-carboxylic acid], the Emax in experiment [1] worked out at 72%; in experiment [2] (setting [3]), 103%.

`Cc1c(Cc2ccc(C(=O)O)cc2)n(S(=O)(=O)c2cccc(C(C)(C)C)c2)c2ccc(C(F)(F)F)nc12` [Example 37, 4-[[1-[[3-(1,1-dimethylethyl)phenyl]sulfonyl]-3-methyl-5-(trifluoro-methyl)-1H-pyrrolo[3,2-b]pyridin-2-yl]methyl]benzoic acid]: in experiment [2] (setting [3]), the Emax was determined as 67%.

Turning to `CC(C)(C)c1cccc(S(=O)(=O)n2c(C(=O)c3ccc(C(=O)O)s3)cc3nc(C(F)(F)F)ccc32)c1` [Example 34, 5-{1-(3-(1,1-dimethylethyl)phenylsulfonyl)-5-trifluoromethyl-1H-pyrrolo[3,2-b]pyridine-2-carbonyl}thiophene-2-carboxylic acid], the Emax in experiment [2] (setting [3]) stood at 31%.

Regarding `CC(C)c1ccc(S(=O)(=O)n2c(Cc3ccc(C(=O)O)cc3)cc3cc(C(F)(F)F)ncc32)cc1` [Example 14, 4-[[1-[[4-(1-methylethyl)phenyl]sulfonyl]-5-(trifluoromethyl)-1H-pyrrolo[2,3-c]pyridin-2-yl]methyl]benzoic acid], the Emax was determined as 54% in experiment [1] and 64% in experiment [2] (setting [3]).

Consider `CC(C)c1ccc(S(=O)(=O)n2c(Cc3ccc(C(=O)O)cc3)cc3nc(C(F)(F)F)ccc32)cc1` [Example 16, 4-[1-(4-(1-methylethyl)phenylsulfonyl)-5-trifluoromethyl-1H-pyrrolo[3,2-b]pyridin-2-ylmethyl]benzoic acid], for which the Emax was 53% in experiment [1] and 68% in experiment [2] (setting [3]).

For `CC(C)(C)c1cccc(S(=O)(=O)n2c(Cc3ccc(C(=O)NS(C)(=O)=O)cc3)cc3nc(C(F)(F)F)ccc32)c1` [Example 39, N-{4-[1-(3-tert-butylbenzenesulfonyl)-5-trifluoromethyl-1H-pyrrolo[3,2-b]pyridin-2-ylmethyl]benzoyl}methanesulfonamide], the Emax in experiment [2] (setting [3]) is 51%.

Regarding `CC(C)(C)c1cccc(S(=O)(=O)n2c(Cc3cc(C(=O)O)co3)cc3cc(C(F)(F)F)ncc32)c1` [Example 4, 5-[[1-[[3-(1,1-dimethylethyl)phenyl]sulfonyl]-5-(trifluoromethyl)-1H-pyrrolo[2,3-c]pyridin-2-yl]methyl]furan-3-carboxylic acid], in experiment [2] (setting [3]), the Emax was determined as 104%.

For the molecule `CC(C)c1ccc(S(=O)(=O)n2c(Cc3ccc(C(=O)O)cc3)cc3cc(Cl)cnc32)cc1` [Example 31, 4-[[5-chloro-1-[[4-(1-methylethyl)phenyl]sulfonyl]-1H-pyrrolo[2,3-b]pyridin-2-yl]methyl]benzoic acid], the Emax was 48% in experiment [1] and 63% in experiment [2] (COS-7, read-out: hNurr1_RXRαFL Eff (%), percentage efficacy relative to the reference XCT0135908 at 2×10^−5 M (=100%)).

Take `CC(C)(C)c1cccc(S(=O)(=O)n2c(Cc3cncc(C(=O)O)c3)cc3cc(C(F)(F)F)ncc32)c1` [Example 5, 5-[[1-[[3-(1,1-dimethylethyl)phenyl]sulfonyl]-5-(trifluoromethyl)-1H-pyrrolo[2,3-c]pyridin-2-yl]methyl]pyridine-3-carboxylic acid]: in experiment [2] (setting [3]), the Emax amounted to 94%.

For the molecule `CC(C)(C)c1cccc(S(=O)(=O)n2c(Cc3csc(C(=O)O)c3)cc3cc(C(F)(F)F)ncc32)c1` [Example 6, 4-[[1-[[3-(1,1-dimethylethyl)phenyl]sulfonyl]-5-(trifluoromethyl)-1H-pyrrolo[2,3-c]pyridin-2-yl]methyl]thiophene-2-carboxylic acid], the Emax in experiment [2] (setting [3]) was 137%.

As to `CC(C)(C)c1cccc(S(=O)(=O)n2c(Cc3ccc(C(=O)O)s3)cc3nc(C(F)(F)F)ccc32)c1` [Example 1, 5-[[1-[[3-(1,1-dimethylethyl)phenyl]sulfonyl]-5-(trifluoromethyl)-1H-pyrrolo[3,2-b]pyridin-2-yl]methyl]thiophene-2-carboxylic acid], the Emax came out at 64% in experiment [1] and 67% in experiment [2] (setting [3]).

Take `CC(C)(C)c1cccc(S(=O)(=O)n2c(Cc3ccc(C(=O)O)cc3)cc3nc(C(F)(F)F)ccc32)c1` [Example 22, 4-[[1-[[3-(1,1-dimethylethyl)phenyl]sulfonyl]-5-(trifluoromethyl)-1H-pyrrolo[3,2-b]pyridin-2-yl]methyl]benzoic acid]: the Emax was 68% in experiment [1] and 92% in experiment [2] (setting [3]).

On to `CC(C)(C)c1cccc(S(=O)(=O)n2c(Cc3ccc(F)c(C(=O)O)c3)cc3cc(C(F)(F)F)ncc32)c1` [Example 7, 5-[[1-[[3-(1,1-dimethylethyl)phenyl]sulfonyl]-5-(trifluoromethyl)-1H-pyrrolo[2,3-c]pyridin-2-yl]methyl]-2-fluorobenzoic acid], for which the Emax in experiment [2] (setting [3]) is 119%.

Regarding `CCN(CC)C(=O)c1ccc(C(F)c2cc3nc(C(F)(F)F)ccc3n2S(=O)(=O)c2cccc(C(C)(C)C)c2)s1` (stereo not shown) [Example 33, 5-[[1-[[3-(1,1-dimethylethyl)phenyl]sulfonyl]-5-(trifluoromethyl)-1H-pyrrolo[3,2-b]pyridin-2-yl]fluoromethyl]-N,N-diethyl-2-thiophenecarboxamide], the Emax in experiment [2] (setting [3]) is 92%.

In the case of `CN1CCOc2ccc(S(=O)(=O)n3c(Cc4ccc(C(=O)O)cc4)cc4cc(C(F)(F)F)cnc43)cc21` [Example 18, 4-[[1-[(3,4-dihydro-4-methyl-2H-1,4-benzoxazin-6-yl)sulfonyl]-5-(trifluoromethyl)-1H-pyrrolo[2,3-b]pyridin-2-yl]methyl]benzoic acid], the values for the Emax in experiment [1] and in experiment [2] (setting [3]) were 69% and 62%, respectively.

As to `CC(C)(C)c1cccc(S(=O)(=O)n2c(C(O)c3ccc(C(=O)O)s3)cc3nc(C(F)(F)F)ccc32)c1` (stereo not shown) [Example 32, 5-{hydroxy[1-(3-(1,1-dimethylethyl)phenylsulfonyl)-5-trifluoromethyl-1H-pyrrolo[3,2-b]pyridin-2-yl]methyl}thiophene-2-carboxylic acid], the Emax in experiment [2] (setting [3]) was 84%.

For the molecule `CC(C)(C)c1cccc(S(=O)(=O)n2c(Cc3cccc(C(=O)O)c3)cc3cc(C(F)(F)F)ncc32)c1` [Example 2, 3-[[1-[[3-(1,1-dimethylethyl)phenyl]sulfonyl]-5-(trifluoromethyl)-1H-pyrrolo[2,3-c]pyridin-2-yl]methyl]-2-benzoic acid], the Emax in experiment [1] came out at 86%; in experiment [2] (setting [3]) it was 70%.

Turning to `CC(C)c1ccc(S(=O)(=O)n2c(Cc3ccc(C(=O)O)s3)cc3cc(Cl)cnc32)cc1` [Example 38, 5-[[1-[[4-(1,1-methylethyl)phenyl]sulfonyl]-5-chloro-1H-pyrrolo[2,3-b]pyridin-2-yl]methyl]thiophene-2-carboxylic acid], in experiment [2] (setting [3]), the Emax worked out at 80%.

With `CN1CCOc2ccc(S(=O)(=O)n3c(Cc4ccc(C(=O)O)cc4)cc4cc(C(F)(F)F)ncc43)cc21` [Example 12, 4-[[1-[(3,4-dihydro-4-methyl-2H-1,4-benzoxazin-6-yl)sulfonyl]-5-(trifluoromethyl)-1H-pyrrolo[2,3-c]pyridin-2-yl]methyl]benzoic acid], the Emax amounted to 75% in experiment [1] and 81% in experiment [2] (setting [3]).

For `CC(C)c1ccc(S(=O)(=O)n2c(Cc3ccc(C(=O)O)cc3)cc3cc(Cl)ncc32)cc1` [Example 20, 4-[[5-chloro-1-[[4-(1-methylethyl)phenyl]sulfonyl]-1H-pyrrolo[2,3-c]pyridin-2-yl]methyl]benzoic acid], the Emax came to 27% in experiment [1] and 42% in experiment [2] (setting [3]).

As to `CC(C)(C)c1cccc(S(=O)(=O)n2c(Cc3ccc(C(=O)O)cc3)cc3cc(C(F)(F)F)cnc32)c1` [Example 28, 4-[[1-[[3-(1,1-dimethylethyl)phenyl]sulfonyl]-5-(trifluoromethyl)-1H-pyrrolo[2,3-b]pyridin-2-yl]methyl]benzoic acid], the Emax in experiment [1] came to 51%; in experiment [2] (setting [3]), 66%.

With `CC(C)c1cccc(S(=O)(=O)n2c(Cc3ccc(C(=O)O)cc3)cc3cc(C(F)(F)F)cnc32)c1` [Example 25, 4-[[1-[[3-(1-methylethyl)phenyl]sulfonyl]-5-(trifluoromethyl)-1H-pyrrolo[2,3-b]pyridin-2-yl]methyl]benzoic acid], the results for the Emax in experiment [1] and in experiment [2] (setting [3]) were 52% and 57%, respectively.
